Each structure is given as a SMILES string. Counter-ions that a name gives are not always drawn. Marks after values point to notes of the source that are not given here.

Consider four compounds from patent US7300937B2, “Derivatives of cyano-aryl (or cyanoheteroaryl)-carbonyl-piperazinyl-pyrimidines, their preparation and application as medication” (Laboratorios del Dr. Esteve, S.A., priority 2001, dated 2007).

The subject of one data set is rat. Nature of the data set: Anaesthetic activity in rats (IV infusion to maintain full anaesthesia for 1 hour). The conditions noted are these: IV infusion required to maintain full anaesthesia for 1 hour.
A further data set has as its system dog. As to the kind of experiment: Anaesthetic activity in dogs (IV infusion). The following applies: IV infusion 5 mg/ml/minute until fully anaesthetised.
A further data set concerns mice. Nature of the data set: Sedative activity in mice (behaviour observation). Further details: unit not given here. The following applies: 80 mg/kg i.p. The format is in vivo, mouse. As to the method: The sedative activity was studied by observing the animals' behaviour after intraperitoneal (i.p.) administration of a dose of 80 mg/kg. This observation was conducted at different times, allowing to know the sedative effect and its duration.

Data set [1] has as its system convulsions induced by IV injection of pentamethylentetrazol (cardiazol). As to the kind of experiment: Anticonvulsive activity in mice (convulsions due to cardiazol). The format is in vivo, mouse. The following applies: for ED50: Mus musculus; for % Activity: mice, cardiazol 45 mg/kg IV.
Data set [2] deals with body tone and abdominal tone of the rats. Nature of the data set: Myorelaxant activity in the IRWIN test in rats. The conditions noted are these: 80 mg/kg ip. The format is in vivo, rat. As to the method:
The activity as muscular relaxant of the products of the invention was studied, by evaluating the effect on body tone and abdominal tone of the rats, following the method described by S. IRWIN (Gordon Res. Conf. on Medicinal Chem.,1959. p.133). The rats received the products under study in a dose of 80 mg/kg ip, and at several times after administration (½, 1, 2, 3, 4 and 5 hours) the body and abdominal tone were evaluated, comparing muscle tension to that of the control animals.

The test system of another data set is mouse. As to the kind of experiment: Anaesthetic activity in mice (IV, loss of three reflexes). The conditions noted are these: for time of anaesthesia: average time.

Experimental for dog: A saline solution of the product in study was perfused by means of a perfusion pump in a concentration and rate of 5 mg/ml/minute, through a cannula inserted in a vein of the front leg.
Experimental for mouse: The anaesthetic activity was determined after intravenous (IV) administration of the product under study in three different doses (15, 10 and 5 mg/kg) in the caudal vein of the mouse. The percentage of anaesthetised animals was recorded and the average time of anaesthesia calculated. Mice were considered to be anaesthetised when losing the three reflexes: positional reflex, response to painful stimulus reflex (prick in the tail) and palpebral reflex.

Consider `CCOc1ccnc(N2CCN(C(=O)c3ccccc3C#N)CC2)n1` [Example 4, 2-[4-(2-cyanobenzoyl)-1-piperazinyl]-4-ethoxypyrimidine hydrochloride], for which the Total dose in the data set on rat was found to be 56.8 mg/kg. The same compound returned an Anaesthetic dose in the data set on dog of 10.1 mg/kg. Further, the Sedative activity in the data set on mice (30′) amounted to 90; in the data set on mice (1 h), 75; in the data set with mice (2 h), 75; in the data set on mice (3 h) it was 35; with mice (4 h), 0; in the data set with mice (5 h), 0. This compound also had a Sedative activity in the data set on mice (24 h) of 0. In data set [1], this compound gave an ED50 of 25.1 mg/kg. Moreover, the results for the “% Activity” value in data set [1] (20 mg/kg i.p.), in data set [1] (40 mg/kg i.p.) and in data set [1] (80 mg/kg i.p.) were 40%, 69% and 87%, respectively. For the same compound, the “% muscular relaxation” value is on record as 100% in data set [2] (after 1 h.); 100% in data set [2] (after 2 h.); 70% in data set [2] (after 3 h.); 33% in data set [2] (after 4 h.); 0% in data set [2] (after 5 h.); 100% in data set [2] (after ½ h.). Besides, the “% anaesthetised” value with mouse (5 mg/kg iv) turned out to be 0%; in the data set with mouse (10 mg/kg iv), 100%; with mouse (15 mg/kg iv) it was 100%. In addition, the values for the time of anaesthesia in the data set with mouse (10 mg/kg iv) and with mouse (15 mg/kg iv) were 2.6 ′ and 5.8 ′, respectively.
As for `CCOc1ccnc(N2CCN(C(=O)c3ccccc3C#N)CC2)n1` (as salt: HCl) [Example 4, 2-[4-(2-cyanobenzoyl)-1-piperazinyl]-4-ethoxypyrimidine hydrochloride], the melting point was in the range of 147 to 151 °C.
With `Cc1ccc(-c2nc3ccc(C)cn3c2CC(=O)N(C)C)cc1` [Zolpidem, reference compound], the Sedative activity in the data set with mice (30′) is recorded as 100; in the data set on mice (1 h), 90; in the data set with mice (2 h), 30; in the data set with mice (3 h), 0; in the data set on mice (4 h), 0; with mice (5 h), 0. In the data set on mice (24 h), this compound displayed a Sedative activity of 0.
Consider `CC(C)c1cccc(C(C)C)c1O` [Propofol, reference compound], for which the Total dose in the data set with rat turned out to be 67 mg/kg. In the data set with dog, the Anaesthetic dose is listed as 21.6* mg/kg. The compound further showed an ED50 in data set [1] of 32.5 mg/kg. For the same compound, the “% Activity” value in data set [1] (20 mg/kg i.p.) turned out to be 33%; in data set [1] (40 mg/kg i.p.), 46%; in data set [1] (80 mg/kg i.p.), 100%. The “% muscular relaxation” value in data set [2] (after 1 h.) is reported as 100%; in data set [2] (after 2 h.), 70%; in data set [2] (after 3 h.), 0%; in data set [2] (after 4 h.), 0%; in data set [2] (after 5 h.), 0%; in data set [2] (after ½ h.), 100%. Further, the “% anaesthetised” value in the data set with mouse (5 mg/kg iv) was 0%; in the data set on mouse (10 mg/kg iv), 80%; in the data set on mouse (15 mg/kg iv) it was 80%. Moreover, the figures for the time of anaesthesia with mouse (10 mg/kg iv) and in the data set with mouse (15 mg/kg iv) were 1 ′ and 1.3 ′, respectively.
